This note sets out measurements from patent US20260184710A1, “CASITAS B-LINEAGE LYMPHOMA PROTOONCOGENE B (CBL-B) DEGRADING COMPOUNDS AND ASSOCIATED METHODS OF USE” (Arvinas Operations, Inc., priority 2022, published 2026).

The term Dmax denotes the greatest extent of degradation seen.

Some results are limits rather than exact numbers.

The target of assay [1] is T1, Cbl-b (Homo sapiens, UniProt Q13191).
T1 construct: Cbl-b-HiBit KI Jurkat Cells were purchased from Promega; host or cells: Cbl-b-HiBiT knock-in Jurkat cells
T1 sequence (Q13191 whole entry): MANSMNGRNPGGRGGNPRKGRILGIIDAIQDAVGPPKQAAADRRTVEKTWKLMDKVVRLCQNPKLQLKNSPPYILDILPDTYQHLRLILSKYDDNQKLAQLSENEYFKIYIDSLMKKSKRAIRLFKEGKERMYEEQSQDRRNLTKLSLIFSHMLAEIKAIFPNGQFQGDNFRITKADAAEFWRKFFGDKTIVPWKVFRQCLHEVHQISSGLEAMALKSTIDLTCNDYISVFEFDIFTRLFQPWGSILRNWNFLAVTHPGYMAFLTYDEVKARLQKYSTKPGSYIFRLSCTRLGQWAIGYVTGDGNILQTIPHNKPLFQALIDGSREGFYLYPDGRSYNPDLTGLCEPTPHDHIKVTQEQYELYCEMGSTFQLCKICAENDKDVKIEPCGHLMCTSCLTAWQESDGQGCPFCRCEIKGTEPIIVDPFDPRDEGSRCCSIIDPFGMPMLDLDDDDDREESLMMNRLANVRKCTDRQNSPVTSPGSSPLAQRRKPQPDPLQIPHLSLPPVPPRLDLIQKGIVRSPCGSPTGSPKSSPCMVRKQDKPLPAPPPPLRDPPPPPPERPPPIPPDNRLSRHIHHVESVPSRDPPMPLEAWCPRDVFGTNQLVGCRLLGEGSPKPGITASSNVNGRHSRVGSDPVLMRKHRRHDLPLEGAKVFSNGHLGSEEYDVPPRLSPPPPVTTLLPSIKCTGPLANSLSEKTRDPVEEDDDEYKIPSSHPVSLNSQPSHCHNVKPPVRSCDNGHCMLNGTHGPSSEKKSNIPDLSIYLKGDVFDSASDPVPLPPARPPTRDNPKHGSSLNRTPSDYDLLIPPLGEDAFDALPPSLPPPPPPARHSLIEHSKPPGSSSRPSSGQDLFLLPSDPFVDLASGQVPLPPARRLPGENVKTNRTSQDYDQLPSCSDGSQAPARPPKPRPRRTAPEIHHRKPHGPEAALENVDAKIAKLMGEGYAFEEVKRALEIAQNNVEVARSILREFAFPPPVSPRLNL
Briefly: Cbl-b Degradation Method A (FACS, anti-Cbl-b antibody staining). It counts as cell-based. The note with it: Cbl-b-HiBit KI Jurkat Cells, incubated at least 20 hours; for DC50: half maximal degradation, read-out: Cbl-b Degredation Method A IC50; for Dmax: Jurkat, maximum degradation observed, read-out: Cbl-b Degredation Method A Dmax (%). In a few lines:
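Cbl-b-HiBit KI Jurkat cells treated with compound for at least 20 h at 37 °C, then fixed, permeabilized and stained with anti-Cbl-b antibody plus anti-rabbit AF488 secondary. Cbl-b levels read by FACS; DC50 and Dmax (percent of control) derived.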
(With HiBiT, luminescence reflects the tagged protein that the partner subunit can reach.)

Assay [2] addresses T1, Cbl-b. Briefly: Cbl-b Degradation Method B (Nano-Glo HiBiT lytic detection). It counts as cell-based. The note with it: Cbl-b-HiBit KI Jurkat Cells, incubated at least 6-24 hours; for DC50: half maximal degradation, read-out: Cbl-b Degredation Method B IC50; for Dmax: maximum degradation observed, read-out: Cbl-b Degredation Method B Dmax (%). In a few lines: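 Cbl-b-HiBiT knock-in Jurkat cells (20,000/well) were treated after ~24 h plating with an 11-point 1:3 series for 6-24 h at 37° C. Remaining Cbl-b measured by Nano-Glo HiBiT lytic luminescence. DC50 and Dmax expressed as % of control.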

Consider `Cn1cnnc1CC1(c2cccc(NC(=O)c3cc(CN4CCC[C@H](CN5CCC(CN6CCN(c7ccc8c(c7)C(=O)N(C7CCC(=O)NC7=O)C8=O)CC6)CC5)C4)nc(C4CC4)n3)c2)COC1` (stereo partly drawn) [Example 19, 2-cyclopropyl-6-[[(3R)-3-[[4-[[4-[2-(2,6-dioxo-3-piperidyl)-1,3-dioxo-isoindolin-5-yl]piperazin-1-yl]methyl]-1-piperidyl]methyl]-1-piperidyl]methyl]-N-[3-[3-[(4-methyl-1,2,4-triazol-3-yl)methyl]oxetan-3-yl]phenyl]pyrimidine-4-carboxamide], for which the DC50 at Cbl-b [1] is 50 to 500 nM. In addition, at Cbl-b [2], the DC50 is below 5 nM and the maximal degradation (Dmax) was below 35%.

For `Cn1cnnc1CC1(c2cccc(N3Cc4c(cc(N5CC6(CC(CCOc7ccc8c(c7)C(=O)N(C7CCC(=O)NC7=O)C8=O)C6)C5)cc4C(F)(F)F)C3=O)c2)COC1` (stereo not shown) [Example 20, 2-(2,6-dioxo-3-piperidyl)-5-[2-[2-[2-[3-[3-[(4-methyl-1,2,4-triazol-3-yl)methyl]oxetan-3-yl]phenyl]-3-oxo-7-(trifluoromethyl)isoindolin-5-yl]-2-azaspiro[3.3]heptan-6-yl]ethoxy]isoindoline-1,3-dione], the DC50 on Cbl-b [1] and on Cbl-b [2] was above 500 nM each time.

For `Cn1cnnc1CC1(c2cccc(N3Cc4c(cc(N5CC(OCC6CCN(c7ccc8c(c7)CN(C7CCC(=O)NC7=O)C8=O)CC6)C5)cc4C(F)(F)F)C3=O)c2)COC1` (stereo not shown) [Example 21, 3-[5-[4-[[1-[2-[3-[3-[(4-methyl-1,2,4-triazol-3-yl)methyl]oxetan-3-yl]phenyl]-3-oxo-7-(trifluoromethyl)isoindolin-5-yl]azetidin-3-yl]oxymethyl]-1-piperidyl]-1-oxo-isoindolin-2-yl]piperidine-2,6-dione], the DC50 on Cbl-b [1] and on Cbl-b [2] was above 500 nM each time.

In the case of `Cn1cnnc1CC1(c2cccc(N3Cc4c(cc(CN5CCN(C[C@H]6CC[C@H](OC7CCN(c8ccc9c(c8)C(=O)N(C8CCC(=O)NC8=O)C9=O)CC7)CC6)CC5)cc4C(F)(F)F)C3=O)c2)COC1` (stereo partly shown) [Example 22, 2-(2,6-dioxo-3-piperidyl)-5-[4-[4-[[4-[[2-[3-[3-[(4-methyl-1,2,4-triazol-3-yl)methyl]oxetan-3-yl]phenyl]-3-oxo-7-(trifluoromethyl)isoindolin-5-yl]methyl]piperazin-1-yl]methyl]cyclohexoxy]-1-piperidyl]isoindoline-1,3-dione], at Cbl-b [1], the DC50 was in the range of 5 to 50 nM and the Dmax was 35 to 70%. For the same compound, on Cbl-b [2], the DC50 was below 5 nM and the Dmax lay within 35 to 70%.

`Cn1cnnc1CC1(c2cccc(N3Cc4c(cc(N5CCC(CN6CCC7(CC6)CN(c6ccc8c(c6)C(=O)N(C6CCC(=O)NC6=O)C8=O)C7)CC5)cc4C(F)(F)F)C3=O)c2)COC1` (stereo not shown) [Example 23, 2-(2,6-dioxopiperidin-3-yl)-5-[7-({1-[2-(3-{3-[(4-methyl-4H-1,2,4-triazol-3-yl)methyl]oxetan-3-yl}phenyl)-3-oxo-7-(trifluoromethyl)-2,3-dihydro-1H-isoindol-5-yl]piperidin-4-yl}methyl)-2,7-diazaspiro[3.5]nonan-2-yl]-2,3-dihydro-1H-isoindole-1,3-dione]: the DC50 on Cbl-b [1] is 50 to 500 nM; at Cbl-b [2], above 500 nM. In addition, on Cbl-b [1], the Dmax was below 35%.

As to `Cn1cnnc1CC1(c2cccc(N3Cc4c(cc(CN5CCC(CN6CCN(c7ccc8c(c7)C(=O)N(C7CCC(=O)NC7=O)C8=O)CC6)CC5)cc4C(F)(F)F)C3=O)c2)COC1` (stereo not shown) [Example 28, 2-(2,6-dioxopiperidin-3-yl)-5-{4-[(1-{[2-(3-{3-[(4-methyl-4H-1,2,4-triazol-3-yl)methyl]oxetan-3-yl}phenyl)-3-oxo-7-(trifluoromethyl)-2,3-dihydro-1H-isoindol-5-yl]methyl}piperidin-4-yl)methyl]piperazin-1-yl}-2,3-dihydro-1H-isoindole-1,3-dione], the DC50 at Cbl-b [1] and on Cbl-b [2] was above 500 nM in each case.

Consider `Cn1cnnc1CC1(c2cccc(N3Cc4c(cc(CN5CCC(CN6CCC7(CC6)CCN(c6ccc8c(c6)C(=O)N(C6CCC(=O)NC6=O)C8=O)CC7)CC5)cc4C(F)(F)F)C3=O)c2)COC1` (stereo not shown) [Example 29, 2-(2,6-dioxopiperidin-3-yl)-5-{9-[(1-{[2-(3-{3-[(4-methyl-4H-1,2,4-triazol-3-yl)methyl]oxetan-3-yl}phenyl)-3-oxo-7-(trifluoromethyl)-2,3-dihydro-1H-isoindol-5-yl]methyl}piperidin-4-yl)methyl]-3,9-diazaspiro[5.5]undecan-3-yl}-2,3-dihydro-1H-isoindole-1,3-dione], for which the DC50 at Cbl-b [1] and on Cbl-b [2] was above 500 nM each time.

In the case of `Cn1cnnc1CC1(c2cccc(N3Cc4c(cc(CN5CCC(CN6CCC(Oc7ccc8c(c7)C(=O)N(C7CCC(=O)NC7=O)C8=O)CC6)CC5)cc4C(F)(F)F)C3=O)c2)COC1` (stereo not shown) [Example 30, 2-(2,6-dioxopiperidin-3-yl)-5-({1-[(1-{[2-(3-{3-[(4-methyl-4H-1,2,4-triazol-3-yl)methyl]oxetan-3-yl}phenyl)-3-oxo-7-(trifluoromethyl)-2,3-dihydro-1H-isoindol-5-yl]methyl}piperidin-4-yl)methyl]piperidin-4-yl}oxy)-2,3-dihydro-1H-isoindole-1,3-dione], the DC50 at Cbl-b [1] and at Cbl-b [2] was above 500 nM in each case.

As for `Cn1cnnc1CC1(c2cccc(N3Cc4c(cc(CN5CCC(CN6CC7(C6)CN(c6ccc8c(c6)C(=O)N(C6CCC(=O)NC6=O)C8=O)C7)CC5)cc4C(F)(F)F)C3=O)c2)COC1` (stereo not shown) [Example 31, 2-(2,6-dioxopiperidin-3-yl)-5-{6-[(1-{[2-(3-{3-[(4-methyl-4H-1,2,4-triazol-3-yl)methyl]oxetan-3-yl}phenyl)-3-oxo-7-(trifluoromethyl)-2,3-dihydro-1H-isoindol-5-yl]methyl}piperidin-4-yl)methyl]-2,6-diazaspiro[3.3]heptan-2-yl}-2,3-dihydro-1H-isoindole-1,3-dione], the DC50 on Cbl-b [1] and on Cbl-b [2] was above 500 nM in each case.

Turning to `Cn1cnnc1CC1(c2cccc(N3Cc4c(cc(CN5CCC[C@H](CN6CCC(CN7CCC(CN8CCN(c9ccc%10c(c9F)CN(C9CCC(=O)NC9=O)C%10=O)CC8)CC7)CC6)C5)cc4C(F)(F)F)C3=O)c2)COC1` (stereo partly drawn) [Example 74, 3-{4-fluoro-5-[4-({1-[(1-{[(3R)-1-{[2-(3-{3-[(4-methyl-4H-1,2,4-triazol-3-yl)methyl]oxetan-3-yl}phenyl)-3-oxo-7-(trifluoromethyl)-2,3-dihydro-1H-isoindol-5-yl]methyl}piperidin-3-yl]methyl}piperidin-4-yl)methyl]piperidin-4-yl}methyl)piperazin-1-yl]-1-oxo-2,3-dihydro-1H-isoindol-2-yl}piperidine-2,6-dione], at Cbl-b [1], the DC50 lay in the range of 5 to 50 nM and the Dmax was above 70%. Further, on Cbl-b [2], the DC50 is below 5 nM and the Dmax is above 70%.

As for `Cn1cnnc1CC1(c2cccc(N3Cc4c(cc(CN5CCC(CC6CCN(c7ccc8c(c7)C(=O)N(C7CCC(=O)NC7=O)C8=O)CC6)C5)cc4C(F)(F)F)C3=O)c2)COC1` (stereo not shown) [Example 75, 2-(2,6-dioxopiperidin-3-yl)-5-{4-[(1-{[2-(3-{3-[(4-methyl-4H-1,2,4-triazol-3-yl)methyl]oxetan-3-yl}phenyl)-3-oxo-7-(trifluoromethyl)-2,3-dihydro-1H-isoindol-5-yl]methyl}pyrrolidin-3-yl)methyl]piperidin-1-yl}-2,3-dihydro-1H-isoindole-1,3-dione], the DC50 at Cbl-b [1] and at Cbl-b [2] was above 500 nM throughout.
